These are literature values, as cited in US6680321B1, “Compounds with analgesic effect” (AstraZeneca Canada, Inc., priority 1995, dated 2004).

The target in one series is δ receptor (Homo sapiens, UniProt P41143).
For series [1] the following is noted: in vivo.
Another series concerns the target μ receptor (Homo sapiens, UniProt P35372).

μ receptor, sequence (P35372 whole entry): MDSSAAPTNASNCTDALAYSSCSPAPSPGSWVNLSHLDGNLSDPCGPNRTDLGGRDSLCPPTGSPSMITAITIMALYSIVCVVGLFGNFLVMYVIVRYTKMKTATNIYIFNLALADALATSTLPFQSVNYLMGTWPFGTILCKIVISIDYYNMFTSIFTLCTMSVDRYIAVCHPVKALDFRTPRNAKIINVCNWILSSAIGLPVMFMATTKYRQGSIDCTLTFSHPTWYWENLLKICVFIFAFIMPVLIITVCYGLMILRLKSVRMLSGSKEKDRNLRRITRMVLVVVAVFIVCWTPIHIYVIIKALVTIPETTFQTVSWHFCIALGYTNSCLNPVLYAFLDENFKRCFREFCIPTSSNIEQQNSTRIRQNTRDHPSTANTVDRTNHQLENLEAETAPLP
δ receptor, sequence (P41143 whole entry): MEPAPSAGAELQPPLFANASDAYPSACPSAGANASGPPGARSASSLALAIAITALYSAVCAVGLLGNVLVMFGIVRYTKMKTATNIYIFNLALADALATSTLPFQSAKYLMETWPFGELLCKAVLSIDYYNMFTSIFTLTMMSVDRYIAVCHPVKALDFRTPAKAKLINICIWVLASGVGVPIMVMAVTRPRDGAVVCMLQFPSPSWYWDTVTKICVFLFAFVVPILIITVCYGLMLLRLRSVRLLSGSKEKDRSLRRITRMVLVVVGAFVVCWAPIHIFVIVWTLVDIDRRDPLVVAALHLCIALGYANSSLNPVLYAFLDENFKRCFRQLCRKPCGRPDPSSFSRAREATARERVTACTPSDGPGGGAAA

Turning to `Oc1ccc2c3c1O[C@H]1c4[nH]c5ccccc5c4C[C@@]4(O)[C@@H](C2)N(CC2CC2)CC[C@]314` [naltrindole], the “selectivity for the δ receptor vs μ′ receptor binding” value at δ receptor is less than 10 fold. Besides, the analgesic activity result in series [1] is on record as “no analgesic activity”.

Regarding `C=CCN1C[C@H](C)N([C@H](c2ccc(C(=O)N(CC)CC)cc2)c2cccc(O)c2)C[C@H]1C` [BW 373U86], in series [1], the analgesic activity result is listed as “with analgesic activity”. For the same compound, the “affinity for the μ receptor” value at μ receptor is “significant affinity”.
